According to patent publication US11420973B2, “Amide substituted indole compounds useful as TLR inhibitors” (BRISTOL-MYERS SQUIBB COMPANY, priority 2017, dated 2022):

Tests used:
[1] = molecular target: human TLR8 (Homo sapiens (Human), UniProt Q9NR97); test: TLR8 inhibition reporter assay (HEK-Blue SEAP reporter, R848 stimulation); settings: read-out: TLR8 IC50; HEK-Blue cells overexpressing human TLR8, R848 15.9 μM, SEAP reporter;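 note: SEAP driven by IFN-β minimal promoter with NF-κB and AP-1 sites, 22 h incubation, compounds 0.05 nM–50 µM, inhibition scaled between agonist plus DMSO and reference inhibitor wells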
human TLR8, sequence (Q9NR97 27-1041): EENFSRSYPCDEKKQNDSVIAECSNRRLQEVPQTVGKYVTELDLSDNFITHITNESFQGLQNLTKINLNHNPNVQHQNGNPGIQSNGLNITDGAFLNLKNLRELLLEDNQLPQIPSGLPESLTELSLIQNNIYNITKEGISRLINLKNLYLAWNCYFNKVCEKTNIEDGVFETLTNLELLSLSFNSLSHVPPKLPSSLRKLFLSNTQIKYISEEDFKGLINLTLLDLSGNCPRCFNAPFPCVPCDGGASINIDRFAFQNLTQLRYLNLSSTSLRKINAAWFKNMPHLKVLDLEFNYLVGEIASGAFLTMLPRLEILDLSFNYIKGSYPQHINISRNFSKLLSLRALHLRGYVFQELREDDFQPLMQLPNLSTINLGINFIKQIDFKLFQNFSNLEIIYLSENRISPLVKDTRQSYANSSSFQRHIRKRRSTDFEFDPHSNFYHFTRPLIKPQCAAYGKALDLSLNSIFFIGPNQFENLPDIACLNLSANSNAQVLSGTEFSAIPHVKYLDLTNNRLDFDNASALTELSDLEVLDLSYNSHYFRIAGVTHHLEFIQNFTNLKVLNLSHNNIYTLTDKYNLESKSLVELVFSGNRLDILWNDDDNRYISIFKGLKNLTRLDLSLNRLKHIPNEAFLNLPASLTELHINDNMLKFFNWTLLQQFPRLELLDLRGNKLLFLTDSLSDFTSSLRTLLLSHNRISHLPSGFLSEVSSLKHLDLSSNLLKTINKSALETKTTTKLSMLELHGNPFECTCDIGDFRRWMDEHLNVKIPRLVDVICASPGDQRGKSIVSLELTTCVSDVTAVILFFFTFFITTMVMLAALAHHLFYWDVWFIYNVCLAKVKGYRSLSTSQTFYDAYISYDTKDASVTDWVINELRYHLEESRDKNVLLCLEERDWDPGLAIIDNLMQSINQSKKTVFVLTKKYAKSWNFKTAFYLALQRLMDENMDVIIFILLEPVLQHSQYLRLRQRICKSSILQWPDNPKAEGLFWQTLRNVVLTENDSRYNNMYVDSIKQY

[2] = molecular target: human TLR9 (Homo sapiens (Human), UniProt Q9NR96); test: TLR9 inhibition reporter assay (HEK-Blue SEAP reporter, ODN2006 stimulation); settings: read-out: TLR9 IC50; HEK-Blue cells overexpressing human TLR9, ODN2006 5 nM, SEAP reporter;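 note: SEAP reporter under IFN-β minimal promoter with five NF-κB and AP-1 sites, 22 h incubation, compounds 0.05 nM–50 µM, inhibition relative to agonist plus DMSO versus known inhibitor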
human TLR9, sequence (Q9NR96 26-1032): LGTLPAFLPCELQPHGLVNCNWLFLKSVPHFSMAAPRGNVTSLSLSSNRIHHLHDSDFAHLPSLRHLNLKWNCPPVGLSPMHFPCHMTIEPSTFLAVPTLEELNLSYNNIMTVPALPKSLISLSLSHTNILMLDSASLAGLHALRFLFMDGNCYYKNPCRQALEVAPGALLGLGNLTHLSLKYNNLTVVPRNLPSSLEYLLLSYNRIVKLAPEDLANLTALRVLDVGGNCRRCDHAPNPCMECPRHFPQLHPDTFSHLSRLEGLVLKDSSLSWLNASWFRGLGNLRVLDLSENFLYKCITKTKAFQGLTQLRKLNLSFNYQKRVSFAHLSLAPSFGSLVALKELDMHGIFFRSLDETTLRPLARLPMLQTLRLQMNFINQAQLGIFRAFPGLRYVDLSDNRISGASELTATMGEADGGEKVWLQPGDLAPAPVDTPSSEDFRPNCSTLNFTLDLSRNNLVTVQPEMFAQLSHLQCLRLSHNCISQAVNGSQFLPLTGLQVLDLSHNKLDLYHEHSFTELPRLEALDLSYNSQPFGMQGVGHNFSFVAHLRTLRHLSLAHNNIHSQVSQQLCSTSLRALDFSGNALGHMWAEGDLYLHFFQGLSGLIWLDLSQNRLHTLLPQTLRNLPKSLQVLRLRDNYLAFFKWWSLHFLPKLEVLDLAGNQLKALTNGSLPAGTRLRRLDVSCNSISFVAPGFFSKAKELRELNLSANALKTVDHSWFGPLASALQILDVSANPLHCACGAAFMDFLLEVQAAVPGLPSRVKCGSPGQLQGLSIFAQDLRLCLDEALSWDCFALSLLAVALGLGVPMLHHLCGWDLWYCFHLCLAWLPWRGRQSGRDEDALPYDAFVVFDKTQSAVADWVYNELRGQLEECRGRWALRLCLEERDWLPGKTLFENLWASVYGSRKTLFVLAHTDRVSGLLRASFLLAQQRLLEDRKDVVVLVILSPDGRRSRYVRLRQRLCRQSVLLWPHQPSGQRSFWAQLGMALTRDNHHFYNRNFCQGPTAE

[3] = molecular target: human TLR7 (Homo sapiens (Human), UniProt Q9NYK1); test: TLR7 inhibition reporter assay (HEK-Blue SEAP reporter, gardiquimod stimulation); format: cell-based; settings: HEK-Blue cells overexpressing human TLR7, gardiquimod 7.5 μM
human TLR7, sequence (Q9NYK1 27-1049): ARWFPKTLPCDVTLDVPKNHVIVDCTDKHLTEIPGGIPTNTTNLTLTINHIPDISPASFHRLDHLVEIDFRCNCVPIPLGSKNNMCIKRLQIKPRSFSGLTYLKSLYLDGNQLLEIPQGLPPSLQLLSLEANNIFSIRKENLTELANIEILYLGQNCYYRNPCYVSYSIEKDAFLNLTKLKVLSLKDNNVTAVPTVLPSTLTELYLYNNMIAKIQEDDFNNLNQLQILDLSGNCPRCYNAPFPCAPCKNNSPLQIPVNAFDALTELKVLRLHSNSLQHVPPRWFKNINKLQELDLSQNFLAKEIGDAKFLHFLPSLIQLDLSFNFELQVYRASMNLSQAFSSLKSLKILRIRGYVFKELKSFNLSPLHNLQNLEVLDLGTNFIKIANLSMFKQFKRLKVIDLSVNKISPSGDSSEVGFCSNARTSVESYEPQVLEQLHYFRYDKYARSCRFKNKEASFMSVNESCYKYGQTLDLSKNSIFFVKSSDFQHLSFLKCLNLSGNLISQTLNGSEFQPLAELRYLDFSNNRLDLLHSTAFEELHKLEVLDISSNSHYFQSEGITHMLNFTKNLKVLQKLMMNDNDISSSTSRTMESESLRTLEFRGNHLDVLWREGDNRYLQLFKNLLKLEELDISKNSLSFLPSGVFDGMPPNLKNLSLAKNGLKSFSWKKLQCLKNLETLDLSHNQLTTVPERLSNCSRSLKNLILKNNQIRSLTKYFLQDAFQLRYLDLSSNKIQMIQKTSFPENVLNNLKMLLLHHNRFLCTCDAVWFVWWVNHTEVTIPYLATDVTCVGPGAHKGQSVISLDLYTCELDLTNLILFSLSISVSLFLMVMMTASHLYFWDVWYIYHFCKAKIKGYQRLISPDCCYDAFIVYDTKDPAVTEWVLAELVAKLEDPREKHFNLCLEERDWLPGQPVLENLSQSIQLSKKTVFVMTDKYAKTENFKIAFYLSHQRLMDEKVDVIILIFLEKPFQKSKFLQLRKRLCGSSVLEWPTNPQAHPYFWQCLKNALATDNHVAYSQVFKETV

Row | Compound | IC50 [1] | IC50 [2] | IC50 [3]
1 | Cc1cc(-c2[nH]c3ccc(C(=O)N4CC5CN(CC(=O)N(C)C)CC5C4)cc3c2C(C)C)ccn1 (stereo not drawn) [Example 117, 2-(5-(3-isopropyl-2-(2-methylpyridin-4-yl)-1H-indole-5-carbonyl)hexahydropyrrolo[3,4-c]pyrrol-2(1H)-yl)-N,N-dimethylacetamide] | 20 nM | 3700 nM | 730 nM
2 | CCc1c(-c2ccnc(C)c2)[nH]c2ccc(C(=O)N(CC)CCN(C)C)cc12 [Example 84, N-(2-(dimethylamino)ethyl)-N,3-diethyl-2-(2-methylpyridin-4-yl)-1H-indole-5-carboxamide] | 2.1 nM | 2520 nM | 49 nM
3 | Cc1cc(-c2[nH]c3ccc(C(C)(C)C(=O)N4CCCCC4CN)cc3c2C(C)C)ccn1 (stereo not drawn) [Example 157, 1-(2-(aminomethyl)piperidin-1-yl)-2-(3-isopropyl-2-(2-methylpyridin-4-yl)-1H-indol-5-yl)-2-methylpropan-1-one] | 28 nM | 997 nM | 6.3 nM
4 | CCc1c(-c2ccc(OC)c(OC)c2)[nH]c2ccc(C(=O)NCCC(N)=O)cc12 [Example 68, N-(3-amino-3-oxopropyl)-2-(3,4-dimethoxyphenyl)-3-ethyl-1H-indole-5-carboxamide] | 277 nM | > 50000 nM | 1710 nM
5 | Cc1cc(-c2[nH]c3ccc(C(C)(C)C(=O)NC4CN5CCC4CC5)cc3c2C(C)C)ccn1 (stereo not drawn) [Example 142, 2-(3-isopropyl-2-(2-methylpyridin-4-yl)-1H-indol-5-yl)-2-methyl-N-(quinuclidin-3-yl)propanamide] | 120 nM | 790 nM | 16 nM
6 | CCc1c(-c2ccc(OC)c(OC)c2)[nH]c2ccc(C(=O)N3CC4CN(C(C)C)CC4C3)cc12 (stereo not drawn) [Example 81, (2-(3,4-dimethoxyphenyl)-3-ethyl-1H-indol-5-yl)(5-isopropylhexahydropyrrolo[3,4-c]pyrrol-2(1H)-yl)methanone] | 87 nM | 1920 nM | 418 nM
7 | Cc1cc(-c2[nH]c3ccc(C(C)C(=O)NC4C[C@H]5CC[C@@H](C4)N5C)cc3c2C(C)C)ccn1 (stereo partly drawn) [Example 214, 2-(3-isopropyl-2-(2-methylpyridin-4-yl)-1H-indol-5-yl)-N-((1R,5S)-8-methyl-8-azabicyclo[3.2.1]octan-3-yl)propanamide] | 167 nM | 4670 nM | 107 nM

The remaining lines, values ahead:

Row | IC50 [1] | IC50 [2] | IC50 [3] | Compound
8 | 481 nM | 1830 nM | 201 nM | Cc1cc(-c2[nH]c3ccc(C(=O)N(C)Cc4ccccc4)cc3c2C(C)C)cc(C)n1 [Example 99, N-benzyl-2-(2,6-dimethylpyridin-4-yl)-3-isopropyl-N-methyl-1H-indole-5-carboxamide]
9 | 74 nM | 668 nM | 171 nM | Cc1cc(-c2[nH]c3ccc(C(=O)N4CC5CN(C(=O)CN(C)C)CC5C4)cc3c2C(C)C)cc(C)n1 (stereo not drawn) [Example 111, 2-(dimethylamino)-1-(5-(2-(2,6-dimethylpyridin-4-yl)-3-isopropyl-1H-indole-5-carbonyl)hexahydropyrrolo[3,4-c]pyrrol-2(1H)-yl)ethanone]
10 | 91 nM | 566 nM | 159 nM | Cc1cc(-c2[nH]c3ccc(C(C)(C)C(=O)N4CCC(N)CC4)cc3c2C(C)C)ccn1 [Example 153, 1-(4-aminopiperidin-1-yl)-2-(3-isopropyl-2-(2-methylpyridin-4-yl)-1H-indol-5-yl)-2-methylpropan-1-one]
11 | 59 nM | 20800 nM | 33 nM | Cc1cc(-c2[nH]c3ccc(C(=O)N(C)CCO)cc3c2C(C)C)cc(C)n1 [Example 105, 2-(2,6-dimethylpyridin-4-yl)-N-(2-hydroxyethyl)-3-isopropyl-N-methyl-1H-indole-5-carboxamide]
12 | 30 nM | > 50000 nM | 45 nM | CNC(=O)c1ccc2[nH]c(-c3cc(C)nc(C)c3)c(C(C)C)c2c1 [Example 97, 2-(2,6-dimethylpyridin-4-1)-3-isopropyl-N-methyl-1H-indole-5-carboxamide]
